Assay [1] deals with human multiple myeloma cell line, OPM-2. Kind of assay: Cell viability assay (OPM-2 10 FBS), CellTiter-Glo. Format: cell-based. A digest of the protocol: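 Steps: plate cells at 3000/well in 10% FBS growth medium, add serially diluted compound, incubate 16 h at 37 °C with 5% CO2, add detection reagent and read luminescence after 25 min. A 4-parameter logistic model gives IC50.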
On the technique in general: ATP-based viability assays read luminescence as a measure of living cells.

In assay [2] the target is recombinant human Mcl-1 (residues 171-327) / Bim interaction (Homo sapiens (Human), UniProt Q07820). Put plainly: biochemical. As to conditions: read-out: Mcl-1 HTRF IC50. Format: binding. (In general: TR-FRET usually uses a lanthanide donor and a delayed reading to cut background.)
Chain of recombinant human Mcl-1 (residues 171-327) / Bim interaction (Q07820 171-327): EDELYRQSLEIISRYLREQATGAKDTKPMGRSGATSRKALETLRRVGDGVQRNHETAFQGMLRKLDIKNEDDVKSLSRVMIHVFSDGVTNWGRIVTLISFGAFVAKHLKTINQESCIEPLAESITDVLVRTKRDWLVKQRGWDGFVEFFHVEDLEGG
Where [3] appears, read: Homo sapiens, OPM-2, 16 h, read-out: OPM-2 10% FBS IC50 IP, OPM-2 cells, 10% FBS, 16 h, CellTiter-Glo.
Where [4] appears, read: TR-FRET, Mcl-1(171-327) / biotin-Bim (51-76).
Setting [5] is: read-out: OPM-2 10% FBS IC50 IP, OPM-2 cells, 10% FBS, 16 h incubation.
The mark [6] stands for this setting: 0.1 nM Mcl-1(171-327), 0.05 nM biotin-Bim (51-76).

The values below come from patent US10821115B2, “Compounds that inhibit Mcl-1 protein” (priority 2017, dated 2020).

Molecules are shown by their SMILES. Where two headings read alike, the source gives them in different places.

Consider `CC#C[C@]1(OC)CCC[C@H](C)[C@@H](C)S(=O)(=O)NC(=O)c2ccc3c(c2)N(C[C@@H]2CC[C@H]21)C[C@@]1(CCCc2cc(Cl)ccc21)CO3` [Example 100332, (1S,3′R,6′R,7′S,11′S,12′R)-6-chloro-7′-methoxy-11′,12′-dimethyl-7′-(1-propyn-1-yl)-3,4-dihydro-2H,15′H-spiro[naphthalene-1,22′-[20]oxa[13]thia[1,14]diazatetracyclo [14.7.2.0~3,6~.0~19,24~]pentacosa[16,18,24]trien]-15′-one 13′,13′-dioxide], for which the IC50 in assay [1] (setting [3]) is 4310 nM; in assay [2] (setting [4]) it was 6.46 nM.
For the molecule `CO[C@@]1(Cc2nc(CO)co2)/C=C/C[C@H](C)[C@@H](C)S(=O)(=O)NC(=O)c2ccc3c(c2)N(C[C@@H]2CC[C@H]21)C[C@@]1(CCCc2cc(Cl)ccc21)CO3` [Example 100570, (1S,3′R,6′R,7′S,8′E,11′S,12′R)-6-chloro-7′-((4-(hydroxymethyl)-1,3-oxazol-2-yl)methyl)-7′-methoxy-11′,12′-dimethyl-3,4-dihydro-2H,15′H-spiro[naphthalene-1,22′-[20]oxa[13]thia[1,14]diazatetracyclo [14.7.2.0~3,6~.0~19,24~]pentacosa[8,16,18,24]tetraen]-15′-one 13′,13′-dioxide], the IC50 in assay [1] (setting [3]) stood at 5050 nM; in assay [2] (setting [4]), 3.38 nM.
In the same order, the values of `CO[C@@]1(Cc2ncccc2C)/C=C/C[C@H](C)[C@@H](C)S(=O)(=O)NC(=O)c2ccc3c(c2)N(C[C@@H]2CC[C@H]21)C[C@@]1(CCCc2cc(Cl)ccc21)CO3` [Example 100542, (1S,3′R,6′R,7′S,8′E,11′S,12′R)-6-chloro-7′-methoxy-11′,12′-dimethyl-7′-((3-methyl-2-pyridinyl)methyl)-3,4-dihydro-2H,15′H-spiro[naphthalene-1,22′-[20]oxa[13]thia[1,14]diazatetracyclo [14.7.2.0~3,6~.0~19,24~]pentacosa[8,16,18,24]tetraen]-15′-one 13′,13′-dioxide] are 902 nM and 0.229 nM.
In the same order, the values of `C[C@@H]1[C@@H](C)C/C=C/[C@@](O)(c2cnc(Cl)n2C)[C@@H]2CC[C@H]2CN2C[C@@]3(CCCc4cc(Cl)ccc43)COc3ccc(cc32)C(=O)NS1(=O)=O` (single isomer, unassigned) [Example 100551] are 142 nM and 0.174 nM.
For `CC(C)CO[C@]1(C=O)/C=C/C[C@H](C)[C@@H](C)S(=O)(=O)NC(=O)c2ccc3c(c2)N(C[C@@H]2CC[C@H]21)C[C@@]1(CCCc2cc(Cl)ccc21)CO3` [Example 100603, (1S,3′R,6′R,7′R,8′E,11′S,12′R)-6-chloro-11′,12′-dimethyl-7′-(2-methylpropoxy)-15′-oxo-3,4-dihydro-2H-spiro[naphthalene-1,22′-[20]oxa[13]thia[1,14]diazatetracyclo [14.7.2.0~3,6~.0~19,24~]pentacosa[8,16,18,24]tetraene]-7′-carbaldehyde 13′,13′-dioxide] the same measures were 1570 nM and 0.651 nM.
For `CO[C@@]1(CN2CCN3CCN(C(C)C)C[C@@H]3C2)/C=C/C[C@H](C)[C@@H](C)S(=O)(=O)NC(=O)c2ccc3c(c2)N(C[C@@H]2CC[C@H]21)C[C@@]1(CCCc2cc(Cl)ccc21)CO3` (single isomer, unassigned) [Example 241], the IC50 is 137 nM in assay [1] (setting [5]) and 0.15 nM in assay [2] (setting [6]).
Take `COC(=O)[C@@H](C)NC(=O)C[C@]1(OC)/C=C/C[C@H](C)[C@@H](C)S(=O)(=O)NC(=O)c2ccc3c(c2)N(C[C@@H]2CC[C@H]21)C[C@@]1(CCCc2cc(Cl)ccc21)CO3` [Example 100528, methyl N-(((1S,3′R,6′R,7′S,8′E,11′S,12′R)-6-chloro-7′-methoxy-11′,12′-dimethyl-13′,13′-dioxido-15′-oxo-3,4-dihydro-2H-spiro[naphthalene-1,22′-[20]oxa[13]thia[1,14]diazatetracyclo [14.7.2.0~3,6~.0~19,24~]pentacosa[8,16,18,24]tetraen]-7′-yl)acetyl)-D-alaninate]: the IC50 in assay [1] (setting [3]) turned out to be 257 nM; in assay [2] (setting [4]), 0.138 nM.
For `C[C@@H]1[C@@H](C)C/C=C/[C@](C)(OCC2CCOCC2)[C@@H]2CC[C@H]2CN2C[C@@]3(CCCc4cc(Cl)ccc43)COc3ccc(cc32)C(=O)NS1(=O)=O` [Example 100477, (1S,3′R,6′R,7′S,8′E,11′S,12′R)-6-chloro-7′,11′,12′-trimethyl-7′-(tetrahydro-2H-pyran-4-ylmethoxy)-3,4-dihydro-2H,15′H-spiro[naphthalene-1,22′-[20]oxa[13]thia[1,14]diazatetracyclo [14.7.2.0~3,6~.0~19,24~]pentacosa[8,16,18,24]tetraen]-15′-one 13′,13′-dioxide] the same measures were 159 nM and 0.313 nM.
In the same order, the values of `C#C[C@@]1(OCCN2CCOCC2)/C=C/C[C@H](C)[C@@H](C)S(=O)(=O)NC(=O)c2ccc3c(c2)N(C[C@@H]2CC[C@H]21)C[C@@]1(CCCc2cc(Cl)ccc21)CO3` [Example 100505, (1S,3′R,6′R,7′R,8′E,11′S,12′R)-6-chloro-7′-ethynyl-11′,12′-dimethyl-7′-(2-(4-morpholinyl)ethoxy)-3,4-dihydro-2H,15′H-spiro[naphthalene-1,22′-[20]oxa[13]thia[1,14]diazatetracyclo [14.7.2.0~3,6~.0~19,24~]pentacosa[8,16,18,24]tetraen]-15′-one 13′,13′-dioxide] are 137 nM and 0.165 nM.
As for `CCCCN1CCN(C[C@]2(OC)/C=C/C[C@H](C)[C@@H](C)S(=O)(=O)NC(=O)c3ccc4c(c3)N(C[C@@H]3CC[C@H]32)C[C@@]2(CCCc3cc(Cl)ccc32)CO4)CC1` [Example 301, (1S,3′R,6′R,7′S,8′E,11′S,12′R)-7′-((4-butyl-1-piperazinyl)methyl)-6-chloro-7′-methoxy-11′,12′-dimethyl-3,4-dihydro-2H,15′H-spiro[naphthalene-1,22′-[20]oxa[13]thia[1,14]diazatetracyclo [14.7.2.0~3,6~.0~19,24~]pentacosa[8,16,18,24]tetraen]-15′-one 13′,13′-dioxide], the IC50 in assay [1] (Homo sapiens, OPM-2, 16 h, read-out: OPM-2 10% FBS IC50 IP, OPM-2 cells, 10% FBS, 16 h incubation) is 141 nM; in assay [2] (setting [6]) it was 0.196 nM.
As to `CO[C@]1(CN2CCN3CCS(=O)(=O)C[C@@H]3C2)/C=C/C[C@H](C)[C@@H](C)S(=O)(=O)NC(=O)c2ccc3c(c2)N(C[C@@H]2CC[C@H]21)C[C@@]1(CCCc2cc(Cl)ccc21)CO3` (single isomer, unassigned) [Example 220], the IC50 in assay [1] (setting [5]) worked out at 42 nM; in assay [2] (setting [6]), 0.052 nM.
For the molecule `C[C@@H]1[C@@H](C)C/C=C/[C@](O)(c2ccncn2)[C@@H]2CC[C@H]2CN2C[C@@]3(CCCc4cc(Cl)ccc43)COc3ccc(cc32)C(=O)NS1(=O)=O` [Example 100361, (1S,3′R,6′R,7′R,8′E,11′S,12′R)-6-chloro-7′-hydroxy-11′,12′-dimethyl-7′-(4-pyrimidinyl)-3,4-dihydro-2H,15′H-spiro[naphthalene-1,22′-[20]oxa[13]thia[1,14]diazatetracyclo [14.7.2.0~3,6~.0~19,24~]pentacosa[8,16,18,24]tetraen]-15′-one 13′,13′-dioxide], the IC50 was 155 nM in assay [1] (setting [3]) and 0.208 nM in assay [2] (setting [4]).

What is called IC50 is the concentration that gives 50% inhibition.
